Source: ChEMBL document CHEMBL1799950, “Antituberculosis cycloartane triterpenoids from Radermachera boniana” (J Nat Prod, 2011)
Converted amounts (≈) assume the structure as drawn.

What follows are molecules tested on Mycobacterium tuberculosis (assay: Antitubercular activity against Mycobacterium tuberculosis H37Rv ATCC 27294 after 7 days by microplate alamar blue assay). Settings: H37Rv ATCC 27294, 168 h.
Format: functional

SMILES	MIC
CC(=O)O[C@H]1CC[C@]2(C)[C@H]3CC=C4[C@H]5[C@](C(=O)O)(CC[C@@H](C)[C@@]5(C)O)CC[C@@]4(C)[C@]3(C)C[C@@H](O)[C@H]2C1(C)C	75.5 µM (≈ 40.1 µg/mL)
CC(=O)O[C@@H]1CC[C@@]2(C)[C@@H](CC[C@]3(C)[C@@H]2CC=C2[C@@H]4CC(C)(C)CC[C@]4(C)CC[C@]23C)[C@@]1(C)C(=O)O	94.8 µM (≈ 47.3 µg/mL)
CC1(C)CC[C@]2(C(=O)O)CC[C@]3(C)C(=CC[C@@H]4[C@@]5(C)CC[C@@H](O)C(C)(C)[C@@H]5CC[C@]43C)[C@@H]2C1	> 200 µM
CC[C@H](CC[C@@H](C)[C@H]1CC[C@H]2[C@@H]3CC=C4CC(=O)CC[C@]4(C)[C@H]3CC[C@]12C)C(C)C [BETA-SITOSTENONE]	39.5 µM (≈ 16.3 µg/mL)
CC(=O)O[C@H]1CC[C@]23C[C@]24CC[C@]2(C)[C@@H]([C@H](C)CCC=C(C)C)CC[C@@]2(C)[C@@H]4CC[C@H]3[C@]1(C)C(=O)O [BONIANIC ACID A]	34.8 µM (≈ 17.4 µg/mL)
CC(=O)O[C@H]1CC[C@]23C[C@]24CC[C@]2(C)[C@@H]([C@H](C)CCC(=O)C(C)C)CC[C@@]2(C)[C@@H]4CC[C@H]3[C@]1(C)C(=O)O [BONIANIC ACID B]	9.9 µM (≈ 5.1 µg/mL)
CC(C)[C@@H](C)/C=C/[C@@H](C)[C@H]1CC[C@@H]2[C@]1(C)CC[C@H]1[C@]23C=C[C@]2(C[C@@H](O)CC[C@]12C)OO3 [ERGOSTEROL PEROXIDE]	3.5 µM (≈ 1.5 µg/mL)
CC1(C)CC[C@]2(C(=O)O)CC[C@]3(C)C(=CC[C@@H]4[C@@]5(C)CC[C@H](O)C(C)(C)[C@@H]5CC[C@]43C)[C@@H]2C1 [OLEANOLIC_ACID]	96.5 µM (≈ 44.1 µg/mL)
CO[C@H]1/C=C/O[C@@]2(C)Oc3c(C)c(O)c4c(O)c(c(/C=N/N5CCN(C)CC5)c(O)c4c3C2=O)NC(=O)/C(C)=C\C=C\[C@H](C)[C@H](O)[C@@H](C)[C@@H](O)[C@@H](C)[C@H](OC(C)=O)[C@@H]1C [RIFAMPIN]	0.14 µM (≈ 0.115 µg/mL)
C[C@H]1[C@H](C)CC[C@]2(C(=O)O)CC[C@]3(C)C(=CC[C@@H]4[C@@]5(C)CC[C@H](O)C(C)(C)[C@@H]5CC[C@]43C)[C@H]12 [URSOLIC ACID]	94.8 µM (≈ 43.3 µg/mL)

What follows are molecules tested on Vero (assay: Cytotoxicity against african green monkey Vero cells after 72 hrs by MTS assay). Settings: Chlorocebus sabaeus.
Format: cell-based

SMILES	IC50
CC(=O)O[C@H]1CC[C@]23C[C@]24CC[C@]2(C)[C@@H]([C@H](C)CCC(=O)C(C)C)CC[C@@]2(C)[C@@H]4CC[C@H]3[C@]1(C)C(=O)O [BONIANIC ACID B]	74.2 µM

The molecules below were run on Vero (assay: Cytotoxicity against african green monkey Vero cells at 200 uM after 72 hrs by MTS assay). Settings: chlorocebus sabaeus.
Format: cell-based

SMILES	Activity
CC(C)[C@@H](C)/C=C/[C@@H](C)[C@H]1CC[C@@H]2[C@]1(C)CC[C@H]1[C@]23C=C[C@]2(C[C@@H](O)CC[C@]12C)OO3 [ERGOSTEROL PEROXIDE]	Non-toxic
